Laboratory results: ChEMBL document CHEMBL5724914, “Linking interpersonal differences in gut microbiota composition and drug biotransformation activity” (2024)

What was measured:
[1] = (§1) The drug is tested on Z-030 corresponding to mouse gut metagenome with ENA study accession number: PRJEB37062 and ENA sample accession number: ERS12561829 for biotransformation under anaerobic condition. The drug concentrations were measured over 9 timepoints collected between 0 and 24 hours of incubation by liquid-chromatography-coupled mass spectrometry (LC–MS); conditions: 2 µM
[2] = as §1, with “Z-026” for “Z-030”, “to” for “to mouse gut”, “ERS12561825” for “ERS12561829”; conditions: 2 µM
[3] = as §1, with “Z-025” for “Z-030”, “rabbit” for “mouse”, “ERS12561824” for “ERS12561829”; conditions: 2 µM
[4] = as §1, with “Z-021” for “Z-030”, “to” for “to mouse gut”, “ERS12561820” for “ERS12561829”; conditions: 2 µM
[5] = as §1, with “Z-008” for “Z-030”, “to” for “to mouse gut”, “ERS12561808” for “ERS12561829”; conditions: 2 µM
[6] = as §1, with “Z-007” for “Z-030”, “rat” for “mouse”, “ERS12561807” for “ERS12561829”; conditions: 2 µM
[7] = as §1, with “WLS-240” for “Z-030”, “human” for “mouse”, “ERS12561773” for “ERS12561829”; conditions: 2 µM
[8] = as §1, with “WLS-077” for “Z-030”, “human” for “mouse”, “ERS12561750” for “ERS12561829”; conditions: 2 µM
[9] = as §1, with “WLS-073” for “Z-030”, “human” for “mouse”, “ERS12561749” for “ERS12561829”; conditions: 2 µM
[10] = as §1, with “WLS-039” for “Z-030”, “human” for “mouse”, “ERS12561746” for “ERS12561829”; conditions: 2 µM
[11] = as §1, with “WLS-010” for “Z-030”, “human” for “mouse”, “ERS12561743” for “ERS12561829”; conditions: 2 µM
[12] = human gut metagenome, 24 h, 2 µM
[13] = human gut metagenome, 24 h, 2 µM; remark: listed apart in the source
[14] = human gut metagenome, 24 h, 2 µM; remark: listed apart in the source
[15] = human gut metagenome, 24 h, 2 µM; remark: listed apart in the source
[16] = human gut metagenome, 24 h, 2 µM; remark: listed apart in the source
[17] = human gut metagenome, 24 h, 2 µM; remark: listed apart in the source
[18] = human gut metagenome, 24 h, 2 µM; remark: listed apart in the source
[19] = human gut metagenome, 24 h, 2 µM; remark: listed apart in the source
[20] = human gut metagenome, 24 h, 2 µM; remark: listed apart in the source
Also: call rule not given here.

SMILES | Bacterial Biotransformation [1] | Bacterial Biotransformation [2] | Bacterial Biotransformation [3] | Bacterial Biotransformation [4] | Bacterial Biotransformation [5] | Bacterial Biotransformation [6] | Bacterial Biotransformation [7] | Bacterial Biotransformation [8] | Bacterial Biotransformation [9] | Bacterial Biotransformation [10] | Bacterial Biotransformation [11] | Bacterial Biotransformation [12] | Bacterial Biotransformation [13] | Bacterial Biotransformation [14] | Bacterial Biotransformation [15] | Bacterial Biotransformation [16] | Bacterial Biotransformation [17] | Bacterial Biotransformation [18] | Bacterial Biotransformation [19] | Bacterial Biotransformation [20]
C#C[C@]1(OC(C)=O)CC[C@H]2[C@@H]3CCC4=C/C(=N/O)CC[C@@H]4[C@H]3CC[C@@]21CC [NORGESTIMATE] | Compound metabolized | Compound NOT metabolized | Compound NOT metabolized | Compound NOT metabolized | Compound NOT metabolized | Compound NOT metabolized | Compound metabolized | Compound metabolized | Compound metabolized | Compound metabolized | Compound metabolized | Compound metabolized | Compound NOT metabolized | Compound NOT metabolized | Compound metabolized | Compound NOT metabolized | Compound metabolized | Compound metabolized | Compound metabolized | Compound metabolized
COc1ccnc(C[S+]([O-])c2nc3ccc(OC(F)F)cc3[nH]2)c1OC (stereo not given) [PANTOPRAZOLE] | Compound metabolized | Compound metabolized | Compound metabolized | Compound metabolized | Compound metabolized | Compound NOT metabolized | Compound metabolized | Compound metabolized | Compound metabolized | Compound metabolized | Compound metabolized | Compound metabolized | Compound metabolized | Compound metabolized | Compound metabolized | Compound metabolized | Compound metabolized | Compound metabolized | Compound metabolized | Compound metabolized
C[C@]12C=CC(=O)C=C1CC[C@@H]1[C@@H]2C(=O)C[C@@]2(C)[C@H]1CC[C@]2(O)C(=O)CO [PREDNISONE] | Compound NOT metabolized | Compound metabolized | Compound NOT metabolized | Compound metabolized | Compound NOT metabolized | Compound NOT metabolized | Compound metabolized | Compound metabolized | Compound metabolized | Compound metabolized | Compound metabolized | Compound metabolized | Compound metabolized | Compound metabolized | Compound metabolized | Compound metabolized | Compound metabolized | Compound metabolized | Compound metabolized | Compound metabolized
CN(CCOc1ccc(CC2SC(=O)NC2=O)cc1)c1ccccn1.O=C(O)/C=C\C(=O)O (stereo not given) [ROSIGLITAZONE MALEATE] | Compound NOT metabolized | Compound NOT metabolized | Compound metabolized | Compound NOT metabolized | Compound NOT metabolized | Compound NOT metabolized | Compound metabolized | Compound NOT metabolized | Compound NOT metabolized | Compound NOT metabolized | Compound NOT metabolized | Compound NOT metabolized | Compound NOT metabolized | Compound NOT metabolized | Compound metabolized | Compound NOT metabolized | Compound metabolized | Compound metabolized | Compound metabolized | Compound metabolized
